Laboratory results from patent US7700786B2, “Pyrazole derivative, intermediate therefor, processes for producing these, and herbicide containing these as active ingredient” (Sagami Chemical Research Center, priority 2001, dated 2010).

melting point | Structure (SMILES)
143 to 145 °C | Cc1cc(Oc2ccc(N)cc2C(F)(F)F)n[nH]1 [Compound 1-37, 3-(4-amino-2-trifluoromethylphenyloxy)-5-methylpyrazole]
85 to 86 °C | CCNC(=O)n1nc(Oc2ncc(C(F)(F)F)cc2Cl)cc1CC [Compound 4-88, N-ethyl-3-(3-chloro-5-trifluoromethylpyridin-2-yloxy)-5-ethylpyrazole-1-carboxamide]
74 to 76 °C | CCNC(=O)n1nc(Oc2ncc(Cl)cc2Cl)cc1C [Compound 4-15, N-ethyl-3-(3,5-dichloropyridin-2-yloxy)-5-methylpyrazole-1-carboxamide]
171 to 174 °C | Cc1cc(Oc2c(F)cc(C(F)(F)F)cc2Cl)n[nH]1 [Compound 1-19, 3-(2-chloro-6-fluoro-4-trifluoromethylphenyloxy)-5-methylpyrazole]
111 to 112 °C | CCNC(=O)n1nc(Oc2ncc(C(F)(F)F)cc2Cl)c(Cl)c1C [Compound 4-67, N-ethyl-4-chloro-3-(3-chloro-5-trifluoromethylpyridin-2-yloxy)-5-methylpyrazole-1-carboxamide]
90 to 92 °C | C=CNC(=S)n1nc(Oc2ncc(C(F)(F)F)cc2Cl)cc1C [Compound 4-41, N-vinyl-3-(3-chloro-5-trifluoromethylpyridin-2-yloxy)-5-methylpyrazole-1-carbothioamide]
93 to 95 °C | Cc1cc(Oc2ncc(C(F)(F)F)cc2Cl)n[nH]1 [Compound 2-5, 3-(3-chloro-5-trifluoromethylpyridin-2-yloxy)-5-methylpyrazole]
89 to 91 °C | Cc1cc(Oc2ccc(C(F)(F)F)cc2[N+](=O)[O-])n[nH]1 [Compound 1-44, 5-methyl-3-(2-nitro-4-trifluoromethylphenyloxy)pyrazole]
91 to 93 °C | Cc1cc(Oc2ccc([N+](=O)[O-])c(Cl)c2)n[nH]1 [Compound 1-23, 3-(3-chloro-4-nitrophenyloxy)-5-methylpyrazole]
58 to 60 °C | Cc1cc(Oc2ncc(C(F)(F)F)cc2Cl)nn1C(=O)N(C(C)C)C(C)C [Compound 4-27, N,N-diisopropyl-3-(3-chloro-5-trifluoromethylpyridin-2-yloxy)-5-methylpyrazole-1-carboxamide]
123 to 125 °C | CCNC(=O)n1nc(Oc2ncc(C(F)(F)F)cc2Cl)c(Br)c1C [Compound 4-78, N-ethyl-4-bromo-3-(3-chloro-5-trifluoromethylpyridin-2-yloxy)-5-methylpyrazole-1-carboxamide]
80 to 83 °C | Cc1cc(Oc2ccc([N+](=O)[O-])c(F)c2)n[nH]1 [Compound 1-26, 3-(3-fluoro-4-nitrophenyloxy)-5-methylpyrazole]
96 to 98 °C | Cc1cc(Oc2ccc([N+](=O)[O-])c(C(F)(F)F)c2)n[nH]1 [Compound 1-42, 5-methyl-3-(4-nitro-3-trifluoromethylphenyloxy)pyrazole]
88 to 89 °C | CCc1c(Cl)c(Oc2ncc(C(F)(F)F)cc2Cl)nn1C(=O)NC [Compound 4-89, N-methyl-4-chloro-3-(3-chloro-5-trifluoromethylpyridin-2-yloxy)-5-ethylpyrazole-1-carboxamide]
123 to 125 °C | Cc1cc(Oc2ccc(C#N)cc2C(F)(F)F)n[nH]1 [Compound 1-30, 3-(4-cyano-2-trifluoromethylphenyloxy)-5-methylpyrazole]
120 to 123 °C | Cc1cc(Oc2c(Cl)cc(C(F)(F)F)cc2[N+](=O)[O-])n[nH]1 [Compound 1-21, 3-(2-chloro-6-nitro-4-trifluoromethylphenyloxy)-5-methylpyrazole]

The remaining lines, values behind:

Structure (SMILES) | melting point
CNC(=O)n1nc(Oc2ccc(C(F)(F)F)cc2[N+](=O)[O-])c(C)c1C | 117 to 119 °C
Cc1c(Cl)c(Oc2ccc(C(F)(F)F)cc2[N+](=O)[O-])nn1C(=O)NC(C)C [Example 243, N-isopropyl-4-chloro-5-methyl-3-(2-nitro-4-trifluoromethylphenyloxy)pyrazole-1-carboxamide] | 89 to 91 °C
CCNC(=O)n1nc(Oc2ccc([N+](=O)[O-])c(OCC)c2)cc1C [Example 98, N-ethyl-3-(3-ethoxy-4-nitrophenyloxy)-5-methylpyrazole-1-carboxamide] | 110 to 112 °C
CNC(=S)n1nc(Oc2ncc(C(F)(F)F)cc2Cl)cc1C | 63 to 65 °C
Cc1cc(Oc2c(Cl)cc(C(F)(F)F)cc2Cl)nn1C(=O)NCC=O [Example 229, N-formylmethyl-3-(2,6-dichloro-4-trifluoromethylphenyloxy)-5-methylpyrazole-1-carboxamide] | 111 to 113 °C
CNC(=O)n1nc(Oc2ccc([N+](=O)[O-])cc2C(F)(F)F)c(Cl)c1C [Example 245, N-methyl-4-chloro-5-methyl-3-(4-nitro-2-trifluoromethylphenyloxy)pyrazole-1-carboxamide] | 157 to 158 °C
CCNC(=O)n1nc(Oc2ccc(N)c(C(F)(F)F)c2)cc1C [Example 100, N-ethyl-3-(4-amino-3-trifluoromethylphenyloxy)-5-methylpyrazole-1-carboxamide] | 102 to 104 °C
CCc1c(Oc2ncc(C(F)(F)F)cc2Cl)nn(C(=O)NC)c1C | 84 to 86 °C
CNC(=O)n1nc(Oc2c(F)cc(C(F)(F)F)cc2Cl)cc1C | 87 to 88 °C
CCc1c(Oc2ccc([N+](=O)[O-])cc2C(F)(F)F)nn(C(=O)NC)c1C | 96 to 97 °C
CCc1cc(Oc2ccc(C(F)(F)F)cc2[N+](=O)[O-])nn1C(=O)NC | 89 to 91 °C
CCNC(=O)n1nc(Oc2ccc([N+](=O)[O-])cc2)cc1C [Example 54, N-ethyl-5-methyl-3-(4-nitrophenyloxy)pyrazole-1-carboxamide] | 105 to 107 °C
CCNC(=S)n1nc(Oc2c(F)cc(C(F)(F)F)cc2Cl)cc1C | 114 to 115 °C
CCNC(=O)n1nc(Oc2c(Cl)cc(C(F)(F)F)cc2Cl)cc1C(=O)OC [Example 175, methyl 3-(2,6-dichloro-4-trifluoromethylphenyloxy)-1 (N-ethylcarbamoyl)pyrazole-5-carboxylate] | 88 to 90 °C
Cc1c(Cl)c(Oc2c(Cl)cc(C(F)(F)F)cc2Cl)nn1C(=O)NCCCl | 141 to 143 °C
Cc1cc(Oc2c([N+](=O)[O-])cc([N+](=O)[O-])cc2C(F)(F)F)n[nH]1 | 145 to 147 °C
COCNC(=S)n1nc(Oc2c(Cl)cc(C(F)(F)F)cc2Cl)cc1C [Example 178, N-methoxymethyl-3-(2,6-dichloro-4-trifluoromethylphenyloxy)-5-methylpyrazole-1-carbothioamide] | 95 to 96 °C

Structure (SMILES) | melting point
CCc1cc(Oc2ncc(C(F)(F)F)cc2Cl)nn1C(=O)NC | 85 to 87 °C
Cc1cc(Oc2c(Cl)cc(C(F)(F)F)cc2Cl)nn1C(N)=O [Example 223, 3-(2,6-dichloro-4-trifluoromethylphenyloxy)-5-methylpyrazole-1-carboxamide] | 152 to 154 °C
CCNC(=O)n1nc(Oc2ccc([N+](=O)[O-])c(C)c2)cc1C [Example 96, N-ethyl-5-methyl-3-(3-methyl-4-nitrophenyloxy)pyrazole-1-carboxamide] | 67 to 69 °C
CCNC(=O)n1nc(Oc2c(Cl)cc(C(F)(F)F)cc2Cl)cc1CC [Example 163, N-ethyl-3-(2,6-dichloro-4-trifluoromethylphenyloxy)-5-ethylpyrazole-1-carboxamide] | 86 to 89 °C
CNC(=O)n1nc(Oc2ccc(C(F)(F)F)cc2[N+](=O)[O-])cc1C(F)(F)F | 102 to 104 °C
CNC(=O)n1nc(Oc2ccc([N+](=O)[O-])cc2C(F)(F)F)c(C)c1C | 113 to 115 °C
CC(C)N(C(=O)n1nc(Oc2ccc(C(F)(F)F)cc2[N+](=O)[O-])cc1C(F)(F)F)C(C)C [Example 241, N,N-Diisopropyl-3-(2-nitro-4-trifluoromethylphenyloxy)-5-trifluoromethylpyrazole-1-carboxamide] | 118 to 120 °C
Cc1cc(Oc2ccc(C(F)(F)F)cc2[N+](=O)[O-])nn1C(=O)NC(C)(C)C [Example 86, N-tert-butyl-5-methyl-3-(2-nitro-4-trifluoromethylphenyloxy)-pyrazole-1-carboxamide] | 104 to 106 °C
CCCCCCNC(=O)n1nc(Oc2c(Cl)cc(C(F)(F)F)cc2Cl)c(Cl)c1C [Example 246, N-hexyl-4-chloro-3-(2,6-dichloro-4-trifluoromethylphenyloxy)-5-methylpyrazole-1-carboxamide] | 86 to 88 °C
CCNC(=O)n1nc(Oc2ccc(C#N)cc2C(F)(F)F)cc1C [Example 95, N-ethyl-3-(4-cyano-2-trifluoromethylphenyloxy)-5-methylpyrazole-1-carboxamide] | 103 to 105 °C
CCc1c(Oc2ccc(C(F)(F)F)cc2[N+](=O)[O-])nn(C(=O)NC)c1C | 81 to 82 °C
Cc1cc(Oc2cccc(C(F)(F)F)c2)nn1C(=O)NCC1CCCO1 (centres unmarked) [Example 199, N-tetrahydrofurfuryl-5-methyl-3-(3-trifluoromethylphenyloxy)pyrazole-1-carboxamide] | 101 to 102 °C
CNC(=O)n1nc(Oc2c(Cl)cc(C(F)(F)F)cc2Cl)cc1C | 113 to 114 °C
CCNC(=O)n1nc(Oc2c(Cl)cc(C(F)(F)F)cc2Cl)cc1-c1ccc(Cl)cc1 [Example 176, N-ethyl-5-(4-chlorophenyl)-3-(2,6-dichloro-4-trifluoromethylphenyloxy)pyrazole-1-carboxamide] | 88 to 89 °C
COCNC(=S)n1nc(Oc2ccc(C#N)cc2C(F)(F)F)cc1C [Example 177, N-methoxymethyl-3-(4-cyano-2-trifluoromethylphenyloxy)-5-methylpyrazole-1-carbothioamide] | 89 to 90 °C
CCNC(=O)n1nc(Oc2c([N+](=O)[O-])cc([N+](=O)[O-])cc2C(F)(F)F)cc1C | 169 to 171 °C
CCc1cc(Oc2ccc([N+](=O)[O-])cc2C(F)(F)F)nn1C(=O)NC | 97 to 100 °C
